Test results taken from the supplement of paper PMC11127212.

Assays:
[1] = collision cross section (TWIMS, N2) of ion [M+H-H2O]+; higher = larger gas-phase ion cross section; details: ionization: ESI positive; LC: HILIC, pH 3.0 ammonium formate
Method: (§1)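 Reference standards (20-100 uM) were separated by HILIC UPLC (BEH HILIC, 45 °C): acidic pH 3.0 ammonium formate/formic acid for ESI+ and basic pH 9.0 ammonium acetate/ammonia for ESI-. They were analysed on a Synapt G2-Si traveling-wave IMS-QTOF with nitrogen drift gas (WH 30 V; WV 800 m/s in ESI+ and 1000 m/s in ESI-). CCS (TWCCSN2, Å2) was calibrated with Major Mix IMS/TOF and LockCCS leucine enkephalin; inter-day RSD was <1%.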

[2] = retention time on BEH HILIC column (20 min gradient, 0.4 mL/min); higher = later elution; details: LC: HILIC
Method: as §1, with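 “ESI-).” for “ESI-). CCS (TWCCSN2, Å2) was calibrated with Major Mix IMS/TOF and LockCCS leucine enkephalin; inter-day RSD was <1%.”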

[3] = collision cross section (TWIMS, N2) of ion [M-H]-; higher = larger gas-phase ion cross section; details: ionization: ESI negative; LC: HILIC, pH 9.0 ammonium acetate
Method: as §1, with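 “ESI-).” for “ESI-). CCS (TWCCSN2, Å2) was calibrated with Major Mix IMS/TOF and LockCCS leucine enkephalin; inter-day RSD was <1%.”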

[4] = collision cross section (TWIMS, N2) of ion [M+H]+; higher = larger gas-phase ion cross section; details: ionization: ESI positive; LC: HILIC, pH 3.0 ammonium formate
Method: as §1, with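 “ESI-).” for “ESI-). CCS (TWCCSN2, Å2) was calibrated with Major Mix IMS/TOF and LockCCS leucine enkephalin; inter-day RSD was <1%.”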

[5] = collision cross section (TWIMS, N2) of ion [M+Na]+; higher = larger gas-phase ion cross section; details: ionization: ESI positive; LC: HILIC, pH 3.0 ammonium formate
Method: as §1

[6] = ionization: ESI negative, pH 9.0 ammonium acetate
[7] = ionization: ESI positive, pH 3.0 ammonium formate

| Structure (SMILES) | collision cross section [1] [Å²] | retention time on BEH HILIC column [2, 6] [min] | retention time on BEH HILIC column [2, 7] [min] | collision cross section [3] [Å²] | collision cross section [4] [Å²] | collision cross section [5] [Å²] |
| --- | --- | --- | --- | --- | --- | --- |
| CNC[C@H](O)c1ccc(O)c(O)c1 [Epinephrine] | 136.45 | 5.61 | 5.91 | 140.21 |  |  |
| Nc1nc(=O)c2nc(CNc3ccc(C(=O)N[C@@H](CCC(=O)O)C(=O)O)cc3)cnc2[nH]1 [Folic acid] |  | 11.4 | 6.7 | 187.54 | 196.77 | 201.44 |
| N[C@@H](Cc1ccc(O)cc1)C(=O)O [L-tyrosine] |  | 6.79 | 6.67 | 141.65 | 141.09 | 143.2 |
| O=C(O)c1cc(O)ccc1O [Gentisic acid] | 126.57 | 1.41 | 1.38 | 126.41 |  |  |
| CN1CC(=O)NC1=N [Creatinine] |  | 1.98 | 2.79 | 120.56 | 120.17 | 129.07 |
| CSCC[C@H](N)C(=O)O [L-methionine] |  | 6.8 | 6.59 | 132.57 | 131.48 | 135.16 |
| O=C(O)c1ccc(O)cc1 [4-hydroxybenzoic acid] | 124.91 | 0.67 | 0.73 | 123.01 |  |  |
| N=C(NCCC[C@H](N)C(=O)O)N[C@@H](CC(=O)O)C(=O)O [Arginosuccinic acid] | 160.05 | 12.7 | 11.2 | 164.65 |  |  |
| CN(CC(=O)O)C(=N)N [Creatine] | 122.05 |  | 7.83 |  | 122.23 |  |
| C/C(=C/C(=O)O)C(=O)O [Citraconic acid] | 124.18 | 0.99 | 0.99 | 120.54 |  |  |
| OC[C@H]1O[C@@H](n2cnc3c(O)ncnc32)[C@H](O)[C@@H]1O [Inosine] |  | 3.4 | 2.31 | 159.47 | 155.86 | 166.42 |
| Nc1ncnc2nc[nH]c12 [Adenine] |  | 2.71 | 2.59 | 126.29 | 125.13 | 134.02 |
| O=C(O)[C@@H]1CCCN1 [L-proline] |  | 7.23 | 7.22 | 116.46 | 123.7 | 130.65 |
| OC[C@H]1OC(O)[C@H](O)[C@@H]1O (stereo partly drawn) [D-ribose] |  | 1.58 | 1.71 | 121.34 |  | 131.78 |
| Nc1c(O)cccc1C(=O)O [3-hydroxyanthranilic acid] | 121.78 | 1.12 | 0.9 | 126.47 |  |  |
| CCCCCCCCCCCCCCCCCCCCCC(=O)O [Behenic acid] |  | 0.73 | 0.82 | 197.18 |  | 204.26 |
| O=C(O)CNC(=O)c1ccccc1 [Hippuric acid] |  | 2.21 | 2.16 | 139.07 | 138.49 | 146.37 |
| C[N+](C)(C)CC(=O)O [Betaine] |  |  | 7.16 |  | 125.33 | 132.22 |
| O=C(O)[C@H]1O[C@H](O)[C@H](O)[C@@H](O)[C@@H]1O [Glucuronic acid] | 134.39 | 8.46 | 0.72 | 129.91 |  |  |
| CCCCCCCCCCCCCCCCCCCC(=O)O [Arachidic acid] |  | 0.73 | 0.79 | 193.88 |  | 198.31 |
| NCCC(=O)N[C@@H](Cc1cnc[nH]1)C(=O)O [Carnosine] |  | 11.7 | 11.8 | 154.88 | 151.65 | 152.28 |
| OC[C@H]1O[C@@H](O[C@H]2[C@H](O)[C@@H](O)[C@@H](O)O[C@@H]2CO)[C@H](O)[C@@H](O)[C@H]1O [D-lactose] |  | 7.33 | 6.42 | 172.39 |  | 171.29 |
| OC[C@H]1O[C@H](O)[C@@H](O)[C@@H](O)[C@@H]1O [D-mannose] |  | 5.43 | 3.87 | 132.14 |  | 140.11 |
| OC[C@H]1O[C@H](O[C@H]2[C@H](O)[C@H](O)[C@@H](O)O[C@@H]2CO)[C@H](O)[C@@H](O)[C@@H]1O [D-maltose] |  | 7.95 | 6.68 | 171.3 |  | 175.45 |
| O=C[C@H](O)COP(=O)(O)O [D-glyceraldehyde 3-phosphate] |  | 12.1 | 11.6 | 131.08 |  | 137.94 |

Now from value to molecule:

| collision cross section [1] [Å²] | retention time on BEH HILIC column [2, 6] [min] | retention time on BEH HILIC column [2, 7] [min] | collision cross section [3] [Å²] | collision cross section [4] [Å²] | collision cross section [5] [Å²] | Structure (SMILES) |
| --- | --- | --- | --- | --- | --- | --- |
|  | 2.74 | 2.74 | 121.16 | 122.92 | 128.31 | O=C(O)c1cccnc1 [Nicotinic acid] |
| 123.87 | 0.75 | 0.77 | 122.73 | 126.19 |  | Cc1cccc(O)c1 [m-cresol] |
| 114.1 |  | 0.82 |  |  |  | O=C(O)/C=C\C(=O)O [Maleic acid] |
| 130.12 | 12.7 | 2.56 | 128.56 |  |  | O=C(O)c1cccnc1C(=O)O [Quinolinic acid] |
| 135.63 | 4.41 | 2.72 | 144.75 |  |  | COc1cc([C@H](O)C(=O)O)ccc1O [Vanillylmandelic acid] |
|  | 4.75 | 4.8 | 134.82 |  | 140.03 | OC[C@@H](O)[C@@H](O)[C@H](O)[C@H](O)CO [Mannitol] |
|  | 2.23 | 2.23 | 118.87 |  | 138.79 | O=C(O)/C=C(\CC(=O)O)C(=O)O [trans-aconitic acid] |
|  | 5.03 | 4.84 | 128.96 |  | 136.98 | O=C(O)CCCC(=O)C(=O)O [Oxoadipic acid] |
|  | 6.83 | 6.7 | 171.26 |  | 174.13 | OC[C@@H](O)[C@@H](O[C@H]1O[C@H](CO)[C@@H](O)[C@H](O)[C@H]1O)[C@H](O)[C@@H](O)CO [Maltitol] |
|  | 6.9 | 6.92 | 172.34 | 171.22 | 178.55 | Nc1nc2c(ncn2[C@@H]2O[C@@H]3COP(=O)(O)O[C@H]3[C@H]2O)c(=O)[nH]1 [cGMP] |
|  | 0.73 | 0.75 | 179.98 |  | 174.95 | CCCCC/C=C\C/C=C\CCCCCCCC(=O)O [Linoleic acid] |
|  | 4.6 | 4.7 | 133.44 |  | 140.03 | OC[C@@H](O)[C@@H](O)[C@H](O)[C@@H](O)CO [Sorbitol] |
